Like-named read-outs stand apart in the source and are kept apart here.
Assays:
[1] = negative = satisfies at least one of (1) LLNA SI less than 3, (2) MSDS, (3) reference; cited from earlier work
[2] = test method: maximization method; cited from earlier work
[3] = cited from earlier work
[4] = system: Female mice; experiment: Skin sensitization test by LLNA (Local Lymph Node Assay) method, SI value; format: in vivo; settings: test substance 50.0 w/v % in acetone:olive oil 4:1, 25 μL/auricle, once/day × 3 days, SI less than 3 = negative
[5] = test method: OECD Test Guideline 406; cited from earlier work

CCC(Cc1ccc(C)cc1)(C(=O)c1ccc(N2CCOCC2)cc1)N(C)C (stereo not shown) [2-dimethylamino-2-(4-methylbenzyl)-1-(4-morpholin-4-yl-phenyl)butan-1-one]
Skin sensitization [1]: negative

C=C(C)C(=O)OC(C)(C)C [Example A2, t-butyl methacrylate]
Skin sensitization evaluated according to the reference [2]: negative | Skin sensitization [1]: negative | Vapor pressure ([3]; 18.5° C.): 700 Pa

C=C(C)C(=O)OCCCCC [Example A3, n-Pentyl methacrylate]
Skin sensitization evaluated according to the reference [2]: negative | Skin sensitization [1]: negative | Vapor pressure ([3]; 25° C.): 69.1 Pa

C=C(C)C(=O)OCCCCCC [Example A4, n-Hexyl methacrylate]
Skin sensitization evaluated according to the reference [2]: negative | Skin sensitization [1]: negative | Vapor pressure ([3]; 20° C.): 34.7 Pa

C=C(C)C(=O)OCC(CO)OC(=O)C(=C)C (stereo not shown) [Example B2, Glycerol dimethacrylate]
Skin sensitization [1]: negative | SI value (Stimulation Index) measured by LLNA test [4]: 1.2

C=C(C)C(=O)OCC(CC)(COC(=O)C(=C)C)COC(=O)C(=C)C [Example B6, Trimethylolpropane trimethacrylate]
SI value (Stimulation Index) measured by LLNA test [4]: 1.9

O=C(c1ccccc1)C1(O)CCCCC1 [Example C1, 1-Hydroxy-cyclohexyl phenyl ketone]
Skin sensitization [1]: negative | Skin sensitization evaluated according to the MSDS [5]: nothing

CCC(Cc1ccc(C)cc1)(C(=O)c1ccc(N2CCOCC2)cc1)N(C)C (stereo not shown) [Example C2, 2-Dimethylamino-2-(4-methylbenzyl)-1-(4-morpholin-4-yl-phenyl)butan-1-one]
Skin sensitization evaluated according to the MSDS [5]: nothing

CSc1ccc(C(=O)C(C)(C)N2CCOCC2)cc1 [Example C3, 2-[4-(Methylthio)benzoyl]-2-(4-morpholinyl)propane]
Skin sensitization evaluated according to the MSDS [5]: nothing

C=CC(=O)OCc1ccccc1 [benzyl acrylate, reference compound]
Skin sensitization [1]: positive | Vapor pressure ([3]; 25° C.): 9.7 Pa

Caprolactone-modified dipentaerythritolhexaacrylate [Example B5]
Skin sensitization [1]: negative

polyethylene glycol dimethacrylate
Skin sensitization [1]: negative

tricyclodecane dimethanol dimethacrylate
Skin sensitization [1]: negative

— US10414150B2, “Active-energy-ray-curable composition, composition stored container, two-dimensional or three-dimensional image forming apparatus, method for forming two-dimensional or three-dimensional image, and cured product” (Ricoh Company, Ltd., priority 2015, dated 2019)
